US8618094B2, “Fused substituted aminopyrrolidine derivative” (Daiichi Sankyo Company, Limited, priority 2007, dated 2013)
Values after ≈ are worked out from the molar mass of the structure shown. Where two headings read alike, the source gives them in different places.

Experiments:
Assay in all cases: Antibacterial activity (MIC), standard method of the Japanese Society of Chemotherapy
Type in all cases: cell-based
E. cloacae 03400 = details: Enterobacter cloacae
Description: (§1) Antibacterial activity of the compounds of the present invention was measured in accordance with the standard method specified by the Japanese Society of Chemotherapy.

E. coli NIHJ = details: Escherichia coli
Description: as §1

E. faecalis 19433 = details: Enterococcus faecalis
Description: as §1

H. influenzae ATCC49247 = details: Haemophilus influenzae
Description: as §1

K. pneumoniae TYPE 1 = details: Klebsiella pneumoniae, TYPE1
Description: as §1

[1] = system: M(B). Caterrhalis ATCC25238
Description: as §1

P. aeruginosa PAO1 = details: Pseudomonas aeruginosa
Description: as §1

P. mirabilis 08103 = details: Proteus mirabilis
Description: as §1

S. aureus 870307 = details: Staphylococcus aureus
Description: as §1

S. aureus FDA 209-P = details: Staphylococcus aureus, FDA209
Description: as §1

S. epidermidis 56500 = details: Staphylococcus epidermidis
Description: as §1

S. marcescens 10100 = details: Serratia marcescens
Description: as §1

S. pneumoniae 104835 = details: Streptococcus pneumoniae
Description: as §1

S. pneumoniae J24 = details: Streptococcus pneumoniae
Description: as §1

[2] = system: S. pyogenes JCM5674(ATCC12344); details: Streptococcus pyogenes
Description: as §1

[3] = H. influenzae ATCC49247 (first half of Table 2), read-out: MIC, H. influenzae ATCC49247
[4] = M(B). Caterrhalis ATCC25238 (first half of Table 2), read-out: MIC, M(B). Caterrhalis ATCC25238
[5] = ATCC 25238 / ATCC 49247, H. influenzae ATCC25238 as printed (second half of Table 2), read-out: MIC, H. influenzae ATCC25238
[6] = M(B). Caterrhalis [sic] ATCC49247 (Table 2), read-out: MIC, M(B). Caterrhalis ATCC49247

MIC (E. cloacae 03400) [µg/mL]	MIC (E. coli NIHJ) [µg/mL]	MIC (E. faecalis 19433) [µg/mL]	MIC (H. influenzae ATCC49247; [3]) [µg/mL]	MIC (K. pneumoniae TYPE 1) [µg/mL]	MIC [1, 4] [µg/mL]	MIC (P. aeruginosa PAO1) [µg/mL]	MIC (P. mirabilis 08103) [µg/mL]	MIC (S. aureus 870307) [µg/mL]	MIC (S. aureus FDA 209-P) [µg/mL]	MIC (S. epidermidis 56500) [µg/mL]	MIC (S. marcescens 10100) [µg/mL]	MIC (S. pneumoniae 104835) [µg/mL]	MIC (S. pneumoniae J24) [µg/mL]	MIC [2] [µg/mL]	MIC (H. influenzae ATCC49247; [5]) [µg/mL]	MIC [1, 6] [µg/mL]	Compound
0.025 (≈ 0.0579 µM)	0.012 (≈ 0.0278 µM)	0.1 (≈ 0.232 µM)	0.006 (≈ 0.0139 µM)	0.1 (≈ 0.232 µM)	0.05 (≈ 0.116 µM)	0.78 (≈ 1.81 µM)	0.05 (≈ 0.116 µM)	0.2 (≈ 0.464 µM)	0.012 (≈ 0.0278 µM)	0.05 (≈ 0.116 µM)	0.2 (≈ 0.464 µM)	0.2 (≈ 0.464 µM)	0.025 (≈ 0.0579 µM)	0.05 (≈ 0.116 µM)	–	–	COc1c(N2CC3(N)CCC4CC43C2)c(F)cc2c(=O)c(C(=O)O)cn([C@@H]3C[C@@H]3F)c12 (single isomer, unassigned) [Example 27]
0.006 (≈ 0.0142 µM)	≤ 0.003	0.05 (≈ 0.119 µM)	≤ 0.003	0.012 (≈ 0.0285 µM)	0.006 (≈ 0.0142 µM)	0.2 (≈ 0.475 µM)	0.006 (≈ 0.0142 µM)	0.2 (≈ 0.475 µM)	0.006 (≈ 0.0142 µM)	0.025 (≈ 0.0593 µM)	0.05 (≈ 0.119 µM)	0.1 (≈ 0.237 µM)	0.025 (≈ 0.0593 µM)	0.025 (≈ 0.0593 µM)	–	–	Cc1c(N2C[C@]3(N)CCC[C@]3(F)C2)c(F)cc2c(=O)c(C(=O)O)cn([C@@H]3C[C@@H]3F)c12 [Example 17, 7-[(1R,5S)-1-Amino-5-fluoro-3-azabicyclo[3.3.0]octan-3-yl]-6-fluoro-1-[(1R,2S)-2-fluorocyclopropane]-1,4-dihydro-8-methyl-4-oxoquinoline-3-carboxylic acid]
0.012 (≈ 0.0287 µM)	0.012 (≈ 0.0287 µM)	0.2 (≈ 0.479 µM)	0.006 (≈ 0.0144 µM)	0.05 (≈ 0.12 µM)	0.025 (≈ 0.0599 µM)	0.39 (≈ 0.934 µM)	0.025 (≈ 0.0599 µM)	0.39 (≈ 0.934 µM)	0.025 (≈ 0.0599 µM)	0.1 (≈ 0.24 µM)	0.1 (≈ 0.24 µM)	0.39 (≈ 0.934 µM)	0.05 (≈ 0.12 µM)	0.05 (≈ 0.12 µM)	–	–	COc1c(N2CC3=CCCC3(N)C2)c(F)cc2c(=O)c(C(=O)O)cn([C@@H]3C[C@@H]3F)c12 (single isomer, unassigned) [Example 25]
0.012 (≈ 0.0277 µM)	0.006 (≈ 0.0138 µM)	0.1 (≈ 0.231 µM)	–	0.05 (≈ 0.115 µM)	–	0.39 (≈ 0.9 µM)	0.012 (≈ 0.0277 µM)	0.1 (≈ 0.231 µM)	0.012 (≈ 0.0277 µM)	0.05 (≈ 0.115 µM)	0.1 (≈ 0.231 µM)	0.2 (≈ 0.461 µM)	0.025 (≈ 0.0577 µM)	0.025 (≈ 0.0577 µM)	0.012 (≈ 0.0277 µM)	0.025 (≈ 0.0577 µM)	COc1c(N2C[C@@H]3CCCC[C@@]3(N)C2)c(F)cc2c(=O)c(C(=O)O)cn([C@@H]3C[C@@H]3F)c12 [Example 31, 7-[(1S,6S)-1-Amino-8-azabicyclo[4.3.0]nonan-8-yl]-6-fluoro-1-[(1R,2S)-2-fluorocyclopropyl]-8-methoxy-1,4-dihydro-4-oxoquinoline-3-carboxylic acid]
0.012 (≈ 0.0276 µM)	0.006 (≈ 0.0138 µM)	0.2 (≈ 0.459 µM)	–	0.05 (≈ 0.115 µM)	–	0.78 (≈ 1.79 µM)	0.025 (≈ 0.0574 µM)	0.2 (≈ 0.459 µM)	0.012 (≈ 0.0276 µM)	0.05 (≈ 0.115 µM)	0.2 (≈ 0.459 µM)	0.78 (≈ 1.79 µM)	0.1 (≈ 0.23 µM)	0.05 (≈ 0.115 µM)	0.006 (≈ 0.0138 µM)	0.025 (≈ 0.0574 µM)	COc1c(N2C[C@@H]3CCOC[C@@]3(N)C2)c(F)cc2c(=O)c(C(=O)O)cn([C@@H]3C[C@@H]3F)c12 [Example 43, 7-[(1S,6S)-1-Amino-8-aza-3-oxabicyclo[4,3,0]nonan-8-yl]-6-fluoro-1-[(1R,2S)-2-fluorocyclopropyl]-1,4-dihydro-8-methoxy-4-oxoquinoline-3-carboxylic acid]
0.025 (≈ 0.0574 µM)	0.006 (≈ 0.0138 µM)	0.1 (≈ 0.23 µM)	–	0.1 (≈ 0.23 µM)	–	1.56 (≈ 3.58 µM)	0.05 (≈ 0.115 µM)	0.05 (≈ 0.115 µM)	0.006 (≈ 0.0138 µM)	0.012 (≈ 0.0276 µM)	0.2 (≈ 0.459 µM)	0.39 (≈ 0.896 µM)	0.05 (≈ 0.115 µM)	0.05 (≈ 0.115 µM)	≤ 0.003	0.025 (≈ 0.0574 µM)	COc1c(N2C[C@@H]3COCC[C@@]3(N)C2)c(F)cc2c(=O)c(C(=O)O)cn([C@@H]3C[C@@H]3F)c12 [Example 37, 7-[(1S,6S)-1-Amino-4-oxa-8-azabicyclo[4.3.0]nonan-8-yl]-6-fluoro-1-[(1R,2S)-2-fluorocyclopropyl]-1,4-dihydro-8-methoxy-4-oxoquinoline-3-carboxylic acid]
